Patent US20210293825A1, “METHODS FOR PRECISION THERAPEUTIC TARGETING OF HUMAN CANCER CELL MOTILITY AND KITS THEREOF” (UNITED STATES GOVERNMENT AS REPRESENTED BY THE DEPARTMENT …, priority 2018, published 2021)
Like-named read-outs stand apart in the source and are kept apart here.

Key:
[1] = Plasma KBU2046 concentration after dosing in chow; type: in vivo, athymic mice; conditions: Balb/c athymic, mouse, oral
Procedure: Cohorts of N=12 athymic mice bearing human PCa PC3-M cell orthotopic implants (a), or of N=5 non-tumor bearing athymic mice (b), were treated with KBU2046 incorporated into chow, and resultant lung metastasis (a) or plasma KBU2046 concentration (b) measured. Values are the mean±SEM. The relationship between dose and metastasis was evaluated by two-sided ANOVA (a). FIG. 2c a comprehensive characterization of KBU2046 pharmacokinetics. CD1 mice were dosed with 100 mg KBU2046/kg via oral gavage or intravenous injection (iv), and blood collected at the indicated time points (data from mice dosed at 25 mg/kg are in FIG. 12, and corroborate 100 mg/kg findings). For each route and time point, N=3 mice were sampled. Individual data points are the resultant plasma concentrations from individual mice, and are the mean of N=2 measurements. The dotted horizontal line denotes a concentration of 24 nM, which was the concentration of KBU2046 measured in the blood of mice whose metastasis were suppressed by 92% (a-b). […]
KBU2046 Quantification and Pharmacokinetics. […]
Plasma KBU2046 concentrations were measured in duplicate by liquid chromatography-tandem mass spectrometry after sample preparation by solid-phase extraction. […] The mass-to-charge ratios of the precursor-to-product ion reactions monitored were 243.5→125.1 for KBU2046 and 257.0→165.0 for the internal standard. […]

PC3-M cells = experiment: Boyden chamber cell invasion assay, PC3-M cells; type: cell-based, human
Procedure: Following the synthetic strategy outlined in FIG. 1a, 4′,5,7-trihydroxyisoflavone was used as the chemical scaffold. […] Note, demethylation within the cell cannot be predicted. Therefore, the loss of function was considered to be informative for methylated compounds. […] This adds further evidence of the importance of the C4′-hydroxyl for activity. […] For cell invasion, PC3-M cells were treated with 10 μM compound for a total of 3 days, and cell invasion assays were run at the end of the 3 day period, in the presence of compound. Values are the mean±SEM of three separate experiments, each run in replicates of N=3. […] Values are the mean±SEM of a single experiment, in replicates of N=4, repeated at least once (also N=4). […] The initial structure-activity relationship (SAR) data informed the second round of compound synthesis. […] Compared to 4′,5,7-trihydroxyisoflavone, KBU2046 is non-planar, lacks hydroxyl groups, and particularly those that mediate ER binding, is halogen-substituted, and has a distinctly different biological profile. These characteristics place KBU2046 in a chemically distinct class, compared to the starting compound.
Cell Invasion Assays. Boyden chamber cell invasion assays were performed as previously described^9, using either denatured collagen (BD Biosciences) or type IV human collagen (BD Biosciences), with the experiments repeated, each in N=4 replicates. In some experiments, as indicated, cells were transfected with an expression plasmid, using Lipofectamine 2000™ (Invitrogen), or with siRNA, using DharmaFect Duo (Thermo Scientific) and co-transfected with β-Galactosidase (Plasmid pCMV⋅SPORT-βgal; Life Technology).
The initial round of synthesis was designed to examine the removal of individual chemical fragments. In this manner, the importance of these functional groups in mediating efficacy (inhibition of cell invasion) could be determined. […] Initial assays were performed with PC3 and PC3-M cells. However, as these studies yielded similar findings, subsequent screening assays utilized only PC3-M cells. In designing chemical synthetic routes, priority was given to efficacy and toxicity parameters. […] These additional design features included removal of fragments that mediated genistein binding to the estrogen receptor (ER), as determined by ER-genistein 3D x-ray crystal structures (Protein Data Base IDs: 1X7R and 1X7J, for crystal structures of ERα and ERβ with bound genistein, respectively). These features also included removal of chemical fragments that are considered to increase susceptibility to rapid metabolism, for example by the cytochrome P450 (CYP) pathway. The final feature involved incorporation of chemical characteristics previously shown to be associated with effective drugs and which together generally impart more favorable pharmacologic properties, including those described by Lipinski et al. (Lipinski, C. A. et al., Adv Drug Deliv Rev 46, 3-26 (2001)).

Structure (SMILES): O=C1c2ccccc2OCC1c1ccc(F)cc1 (racemic) [KBU2046, (±)-3(4-fluorophenyl)chroman-4-one]
- concentration at 35 days ([1]; doses that decreased metastasis, read-out: plasma concentrations): 1.1 to 24 nM
- concentration at 35 days ([1]; read-out: concentration in blood of mice whose metastasis were suppressed by 92%): 24 nM
- effect on cell invasion (PC3-M cells; 10 μM compound, 3 days): anti-invasive efficacy at least equal to that of the starting compound
- inhibition of cell invasion (PC3-M cells; (S226A)-HSP90β transfected PC3-M cells): does not further inhibit cell invasion
- inhibition of cell invasion (PC3-M cells; (S226D)-HSP90β transfected PC3-M cells): did not significantly inhibit cell invasion
- anti-invasion efficacy under TGFβ-stimulated invasion (PC3-M cells; PC3-M cells, ±TGFβ): retains efficacy
- inhibition of cell invasion (PC3-M cells; VC and WT-HSP90β transfected PC3-M cells): significantly inhibited invasion
- efficacy on cell invasion (PC3-M cells; siRNA-mediated HSP90β knockdown): abrogated KBU2046 efficacy
- inhibition of cell invasion (PC3-M cells; vector control (VC) transfected PC3-M cells): significantly inhibits invasion
